“Also recorded” adds a separate entry of the source.
Tests used:
[1] = system: F.Xa; details: substrate affinity; cited from earlier work
[2] = system: bovine Factor Xa; assay: Inhibition of bovine Xa activity on chromogenic substrate; type: biochemical; details: result in words
Method: (§1) Regarding the methods, synthetic substrates having a chromogenic end group such as pNA (para- nitroanilide) are preferably used, enabling easy monitoring of the progress of the coagulation by spectrophotometer methods. […] The reactions were monitored at 405 nm in a spectrophotometer connected to a computer and the kinetic parameter were calculated from the appropriate extinction coefficients by a Jackson-Labanowski linear regression program. The measurements were carried out in disposable polystyrene cuvettes at pH of 7.8 and a temperature of 25° C.

[3] = system: bovine F.Xa; assay: Affinity binding to bovine F.Xa immobilized on Affi-Gel 10; details: leech saliva passed through column, pH 7.9
Method: The inhibitor/modulator of the present invention may be isolated from the saliva by adsorption on an Affi-Gel column on which bovine F.Xa is fixed and subsequent elution with acetic acid. Hirudin was not adsorbed on said gel. Affi-Gel 10 is used, which is a derivatized ross-linked agarose containing a 10-atom spacer arm esterified to N-hydroxysuccinimide. The capacity of this gel is 10 micromoles/ml.
1. Coupling. To 1ml washed Affi-Gel 10 in a mini-column were added 2ml of a dialyzed BXa solution (40 nmoles) in 0.05 M Hepes/0.1 M NaCl buffer pH 7.5. The column was shaken for 2 h at room temp. The supernatant was then run off the column, which was not allowed to dry. Ninety four percent of the BXa load was bound to the gel.
3. Affinity binding of XaM. Leech saliva (40 ml, 305 pmoles XaM) was adjusted to pH 7.9 by adding 1% v/v 1M Tris pH 8 and was passed through the column. Ninety two percent of the XaM was bound to the gel. Hirudin was not bound.

[4] = system: bovine thrombin; assay: Inhibition of bovine thrombin activity on chromogenic substrate; type: biochemical; details: result in words
Method: as §1

[5] = system: bovine Factor Xa; details: literature (Tuszynski, Gasic and Gasic 1987); cited from earlier work

## N=C(N)NCCC[C@H](NC(=O)[C@@H]1CCCCN1C(=O)[C@H](N)Cc1ccccc1)C(=O)Nc1ccc([N+](=O)[O-])cc1 [S2238, D-Phe-Pipecolyl-L-Arg-pNa]
[1]
  Km: 46.9 µM

## hirudin
[2]
  inhibition of bovine F.Xa: does not inhibit bovine F.Xa
[3]
  adsorption on Affi-Gel with fixed bovine F.Xa: not adsorbed; also recorded: not bound
[4]
  inhibition of thrombin: inhibits thrombin

B1: antistasin (protein, UniProt P15358 18-136, looked up)
Antistasin: QGPFGPGCEEAGCPEGSACNIITDRCTCSGVRCRMHCPHGFQRSRYGCEFCKCRLEPMKATCDISECPEGMMCSRLTNKCDCKIDINCRKTCPNGLKRDKLGCEYCECRPKRKLIPRLS
[5]
  remaining BXa activity at which the dose-response curve flattens out: about 50%
